Source: PubChem BioAssay AID1918991 (Molecular Pharmacology Branch, DTP, NCI, 2023)
pIC50: −log10 of the molar value.

Tested on: 186277-243-T-J2-PDC complex spheroid growth
Assay: Anticancer human tumor 186277-243-T-J2-PDC patient-derived colon adenocarcinoma cell line growth inhibition [AhR]
Settings: for pIC50: curve of first compound; for viability, T/C: stronger effect = lower value; active means viability on the fitted dose curve at most 10% of control; inactive means the rest
Method in brief: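 Agents were dosed in half-log steps down from roughly clinical Cmax, or from 10 microM where Cmax was unknown, alone and with AhR antagonists. Read-out: percent test/control growth of tumor spheroids containing HUVEC and MSC stromal cells.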

[1] = second compound 0.1 µM, first compound 0.0316 µM
[2] = second compound 0.1 µM, first compound 0.1 µM
[3] = second compound 0.1 µM, first compound 0.316 µM
[4] = second compound 0.1 µM, first compound 1 µM
[5] = second compound 0.1 µM, first compound 3.16 µM
[6] = second compound 0.1 µM, first compound 10 µM
[7] = second compound 0.316 µM, first compound 0.0316 µM
[8] = second compound 0.316 µM, first compound 0.1 µM
[9] = second compound 0.316 µM, first compound 0.316 µM
[10] = second compound 0.316 µM, first compound 1 µM
[11] = second compound 0.316 µM, first compound 3.16 µM
[12] = second compound 0.316 µM, first compound 10 µM
[13] = second compound 1 µM, first compound 0.0316 µM
[14] = second compound 1 µM, first compound 0.1 µM
[15] = second compound 1 µM, first compound 0.316 µM
[16] = second compound 1 µM, first compound 1 µM
[17] = second compound 1 µM, first compound 3.16 µM
[18] = second compound 1 µM, first compound 10 µM
[19] = second compound 3.16 µM, first compound 0.0316 µM
[20] = second compound 3.16 µM, first compound 0.1 µM
[21] = second compound 3.16 µM, first compound 0.316 µM
[22] = second compound 3.16 µM, first compound 1 µM
[23] = second compound 3.16 µM, first compound 3.16 µM
[24] = second compound 3.16 µM, first compound 10 µM
[25] = second compound 10 µM, first compound 0.0316 µM
[26] = second compound 10 µM, first compound 0.1 µM
[27] = second compound 10 µM, first compound 0.316 µM
[28] = second compound 10 µM, first compound 1 µM
[29] = second compound 10 µM, first compound 3.16 µM
[30] = second compound 10 µM, first compound 10 µM
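Further: spheroids exposed to compounds for seven days before the viability read.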
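Wherever viability, T/C is given: luminescent signal used as a stand-in for viable cell amount; 100% = DMSO vehicle control wells.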

CC(C)CC(NC(=O)C(Cc1ccccc1)NC(=O)c1cnccn1)B(O)O (stereo not given) + Cc1ccccc1N=Nc1ccc(NC(=O)c2ccnn2C)c(C)c1
inactive: viability, T/C (second compound 0.1 µM, first compound 0.000949 µM) 101% | viability, T/C (second compound 0.1 µM, first compound 0.003 µM) 108% | viability, T/C (second compound 0.1 µM, first compound 0.00949 µM) 109% | viability, T/C (second compound 0.316 µM, first compound 0.000949 µM) 104% | viability, T/C (second compound 0.316 µM, first compound 0.003 µM) 118% | viability, T/C (second compound 0.316 µM, first compound 0.00949 µM) 97.3% | viability, T/C (second compound 1 µM, first compound 0.000949 µM) 99.8% | viability, T/C (second compound 1 µM, first compound 0.003 µM) 98.2% | viability, T/C (second compound 1 µM, first compound 0.00949 µM) 91.5% | viability, T/C (second compound 3.16 µM, first compound 0.000949 µM) 104% | viability, T/C (second compound 3.16 µM, first compound 0.003 µM) 95.4% | viability, T/C (second compound 3.16 µM, first compound 0.00949 µM) 89.1% | viability, T/C (second compound 10 µM, first compound 0.000949 µM) 96% | viability, T/C (second compound 10 µM, first compound 0.003 µM) 90.1% | viability, T/C (second compound 10 µM, first compound 0.00949 µM) 98.6%
7.80: pIC50 (second compound 3.16 µM)
active: viability, T/C (second compound 0.1 µM, first compound 0.03 µM) 2.71% | viability, T/C (second compound 0.1 µM, first compound 0.0949 µM) 1.36% | viability, T/C (second compound 0.1 µM, first compound 0.3 µM) 0.12% | viability, T/C (second compound 0.316 µM, first compound 0.03 µM) 1.86% | viability, T/C (second compound 0.316 µM, first compound 0.0949 µM) 0.39% | viability, T/C (second compound 0.316 µM, first compound 0.3 µM) 0.12% | viability, T/C (second compound 1 µM, first compound 0.03 µM) 1.95% | viability, T/C (second compound 1 µM, first compound 0.0949 µM) 1.08% | viability, T/C (second compound 1 µM, first compound 0.3 µM) 0.12% | viability, T/C (second compound 3.16 µM, first compound 0.03 µM) 1.92% | viability, T/C (second compound 3.16 µM, first compound 0.0949 µM) 0.77% | viability, T/C (second compound 3.16 µM, first compound 0.3 µM) 0.14% | viability, T/C (second compound 10 µM, first compound 0.03 µM) 3.12% | viability, T/C (second compound 10 µM, first compound 0.0949 µM) 0.43% | viability, T/C (second compound 10 µM, first compound 0.3 µM) 0.21%
7.78: pIC50 (second compound 10 µM)
7.75: pIC50 (second compound 0.1 µM)
7.77: pIC50 (second compound 0.316 µM)
7.79: pIC50 (second compound 1 µM)

COc1cc(Nc2ncc3c(n2)-c2ccc(Cl)cc2C(c2c(F)cccc2OC)=NC3)ccc1C(=O)O + Cc1ccccc1N=Nc1ccc(NC(=O)c2ccnn2C)c(C)c1
inactive: viability, T/C [1] 132% | viability, T/C [2] 125% | viability, T/C [3] 117% | viability, T/C [4] 107% | viability, T/C [5] 115% | viability, T/C [6] 120% | viability, T/C [7] 134% | viability, T/C [8] 119% | viability, T/C [9] 114% | viability, T/C [10] 108% | viability, T/C [11] 101% | viability, T/C [12] 117% | viability, T/C [13] 130% | viability, T/C [14] 123% | viability, T/C [15] 114% | viability, T/C [16] 107% | viability, T/C [17] 107% | viability, T/C [18] 117% | viability, T/C [19] 133% | viability, T/C [20] 118% | viability, T/C [21] 110% | viability, T/C [22] 103% | viability, T/C [23] 106% | viability, T/C [24] 114% | viability, T/C [25] 108% | viability, T/C [26] 104% | viability, T/C [27] 105% | viability, T/C [28] 96.5% | viability, T/C [29] 93.3% | viability, T/C [30] 102%
< 5.00: pIC50 (second compound 0.1 µM) | pIC50 (second compound 0.316 µM) | pIC50 (second compound 1 µM) | pIC50 (second compound 3.16 µM) | pIC50 (second compound 10 µM)

NS(=O)(=O)OCC1CC(n2ccc3c(NC4CCc5ccccc54)ncnc32)CC1O (stereo not given) + Cc1ccccc1N=Nc1ccc(NC(=O)c2ccnn2C)c(C)c1
active: viability, T/C [6] 7.4% | viability, T/C [24] 5.34% | viability, T/C [30] 4.53%
6.34: pIC50 (second compound 3.16 µM)
6.52: pIC50 (second compound 10 µM)
inactive: viability, T/C [1] 106% | viability, T/C [2] 97.9% | viability, T/C [3] 77.6% | viability, T/C [4] 43.7% | viability, T/C [5] 23.1% | viability, T/C [7] 109% | viability, T/C [8] 117% | viability, T/C [9] 67.1% | viability, T/C [10] 38% | viability, T/C [11] 19.6% | viability, T/C [12] 8.23% | viability, T/C [13] 110% | viability, T/C [14] 110% | viability, T/C [15] 61.4% | viability, T/C [16] 38.6% | viability, T/C [17] 20.1% | viability, T/C [18] 9.57% | viability, T/C [19] 103% | viability, T/C [20] 97.5% | viability, T/C [21] 50.2% | viability, T/C [22] 36.3% | viability, T/C [23] 13.6% | viability, T/C [25] 93.7% | viability, T/C [26] 80% | viability, T/C [27] 43.5% | viability, T/C [28] 29.8% | viability, T/C [29] 10.1%
6.23: pIC50 (second compound 1 µM)
6.20: pIC50 (second compound 0.316 µM)
6.07: pIC50 (second compound 0.1 µM)

O=C(C=Cc1cccc(S(=O)(=O)Nc2ccccc2)c1)NO + Cc1ccccc1N=Nc1ccc(NC(=O)c2ccnn2C)c(C)c1
5.83: pIC50 (second compound 10 µM)
active: viability, T/C [6] 4.8% | viability, T/C [12] 4.82% | viability, T/C [18] 4.07% | viability, T/C [24] 3% | viability, T/C [30] 3.18%
5.69: pIC50 (second compound 0.1 µM)
5.72: pIC50 (second compound 1 µM)
inactive: viability, T/C [1] 114% | viability, T/C [2] 104% | viability, T/C [3] 96.2% | viability, T/C [4] 88.8% | viability, T/C [5] 25.4% | viability, T/C [7] 96.7% | viability, T/C [8] 114% | viability, T/C [9] 101% | viability, T/C [10] 74.7% | viability, T/C [11] 23.2% | viability, T/C [13] 104% | viability, T/C [14] 100% | viability, T/C [15] 108% | viability, T/C [16] 84.7% | viability, T/C [17] 22.3% | viability, T/C [19] 91.5% | viability, T/C [20] 114% | viability, T/C [21] 112% | viability, T/C [22] 74.5% | viability, T/C [23] 18.4% | viability, T/C [25] 89.8% | viability, T/C [26] 97.8% | viability, T/C [27] 96.5% | viability, T/C [28] 65% | viability, T/C [29] 18.8%
5.76: pIC50 (second compound 0.316 µM)
5.78: pIC50 (second compound 3.16 µM)
